Measured values from patent US20240109900A1, “AZABICYCLIC SHP2 INHIBITORS” (IRBM S.P.A., priority 2021, published 2024).
Where two headings read alike, the source gives them in different places.

Tests used:
[1] = molecular target: SHP-2 enzyme (Met1-Leu525) (Homo sapiens (Human), UniProt Q06124); experiment: SHP2 inhibition enzymatic assay; assay type: biochemical; details: 0.5 nM SHP-2 activated by 500 nM IRS1 peptide, 75 μM DiFMUP substrate; read-out: SHP2wt-IC50
Summary of the method: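 SHP-2 (Met1-Leu525), 0.5 nM, activated with 500 nM IRS1 bis-phosphopeptide, preincubated 30 min with compounds in HEPES pH 7.2 buffer with 5 mM DTT. 75 μM DiFMUP added for 30 min at room temperature, stopped with bpV; fluorescence read. IC50 from four-parameter logistic fit of % inhibition.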

[2] = system: ERK phosphorylation in KYSE-520 cells; experiment: Phospho-ERK cellular assay; assay type: cell-based; details: Homo sapiens, read-out: PERK IC50
Summary of the method: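 TR-FRET read-out of ERK1/2 Thr202/Tyr204 phosphorylation was taken after overnight antibody incubation at room temperature. Before that, KYSE-520 cells were treated 2 h at 37 °C with compound dilutions and lysed 30 min. Percent inhibition relative to vehicle and cell-free wells was fitted four-parametrically to give IC50.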

[3] = KYSE-520, 2 h, KYSE-520 cells, 2 h at 37° C., phospho-ERK1/2 (Thr202/Tyr204) TR-FRET

Chain of SHP-2 enzyme (Met1-Leu525) (Q06124 1-525): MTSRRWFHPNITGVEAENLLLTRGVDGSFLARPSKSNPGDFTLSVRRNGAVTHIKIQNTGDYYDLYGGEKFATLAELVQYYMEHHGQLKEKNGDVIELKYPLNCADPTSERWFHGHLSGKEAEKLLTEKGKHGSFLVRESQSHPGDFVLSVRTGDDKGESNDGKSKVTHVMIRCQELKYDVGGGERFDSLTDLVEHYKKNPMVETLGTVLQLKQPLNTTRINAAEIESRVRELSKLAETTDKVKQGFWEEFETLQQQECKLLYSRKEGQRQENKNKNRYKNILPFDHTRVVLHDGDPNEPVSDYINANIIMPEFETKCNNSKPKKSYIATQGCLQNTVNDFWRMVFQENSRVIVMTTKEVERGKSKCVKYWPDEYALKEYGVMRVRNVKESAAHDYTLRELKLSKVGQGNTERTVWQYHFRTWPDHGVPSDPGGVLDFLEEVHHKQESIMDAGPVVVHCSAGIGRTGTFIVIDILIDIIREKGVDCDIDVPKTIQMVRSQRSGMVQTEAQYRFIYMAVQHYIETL

SMILES: Cc1csc(C2(CN)C3CCN(c4cnc5c(-c6cccc7c6OCO7)n[nH]c5n4)CC32)n1 (stereo not drawn) [Example 91, (3-(3-(Benzo[d][1,3]dioxol-4-yl)-1H-pyrazolo[3,4-b]pyrazin-6-yl)-7-(4-methylthiazol-2-yl)-3-azabicyclo[4.1.0]heptan-7-yl)methanamine]
- IC50 [1]: < 0.5 µM
- IC50 [2, 3]: < 1 µM

SMILES: Cc1csc(C2(CN)C3CCN(c4cnc5c(-c6ccc(F)c7ncccc67)n[nH]c5n4)CC32)n1 (stereo not drawn) [Example 92, (3-(3-(8-fluoroquinolin-5-yl)-1H-pyrazolo[3,4-b]pyrazin-6-yl)-7-(4-methylthiazol-2-yl)-3-azabicyclo[4.1.0]heptan-7-yl)methanamine]
- IC50 [1]: < 0.5 µM
- IC50 [2, 3]: < 1 µM

SMILES: Cc1csc(C2(CN)C3CCN(c4cnc5c(Sc6ccnc(N)c6Cl)n[nH]c5n4)CC32)n1 (stereo not drawn) [Example 93, 4-((6-(7-(aminomethyl)-7-(4-methylthiazol-2-yl)-3-azabicyclo[4.1.0]heptan-3-yl)-1H-pyrazolo[3,4-b]pyrazin-3-yl)thio)-3-chloropyridin-2-amine]
- IC50 [1]: < 0.5 µM
- IC50 [2, 3]: < 1 µM

SMILES: NCC1(c2ccsc2)C2CCN(c3cnc4c(-c5cccc(Cl)c5Cl)n[nH]c4n3)CC21 (stereo not drawn) [Example 94, (3-(3-(2,3-dichlorophenyl)-1H-pyrazolo[3,4-b]pyrazin-6-yl)-7-(thiophen-3-yl)-3-azabicyclo [4.1.0]heptan-7-yl)methanamine]
- IC50 [1]: < 0.5 µM
- IC50 [2, 3]: < 1 µM

SMILES: NCC1(c2ccsc2)C2CCN(c3cnc4c(-c5ccnc(C(F)(F)F)c5)n[nH]c4n3)CC21 (stereo not drawn) [Example 95, (7-(thiophen-3-yl)-3-(3-(2-(trifluoromethyl)pyridin-4-yl)-1H-pyrazolo[3,4-b]pyrazin-6-yl)-3-azabicyclo[4.1.0]heptan-7-yl)methanamine]
- IC50 [1]: < 0.5 µM
- IC50 [2, 3]: 1 to 5 µM

SMILES: NCC1(c2ccsc2)C2CCN(c3cnc4c(-c5cccnc5C(F)(F)F)n[nH]c4n3)CC21 (stereo not drawn) [Example 96, (7-(thiophen-3-yl)-3-(3-(2-(trifluoromethyl)pyridin-3-yl)-1H-pyrazolo[3,4-b]pyrazin-6-yl)-3-azabicyclo[4.1.0]heptan-7-yl)methanamine]
- IC50 [1]: < 0.5 µM
- IC50 [2, 3]: < 1 µM

SMILES: Cn1nccc1C1(CN)C2CCN(c3cnc4c(-c5cccc(Cl)c5Cl)n[nH]c4n3)CC21 (stereo not drawn) [Example 97, (3-(3-(2,3-dichlorophenyl)-1H-pyrazolo[3,4-b]pyrazin-6-yl)-7-(1-methyl-1H-pyrazol-5-yl)-3-azabicyclo[4.1.0]heptan-7-yl)methanamine]
- IC50 [1]: < 0.5 µM
- IC50 [2, 3]: < 1 µM

SMILES: Cn1ccc(C2(CN)C3CCN(c4cnc5c(-c6cccc(Cl)c6Cl)n[nH]c5n4)CC32)n1 (stereo not drawn) [Example 98, (3-(3-(2,3-dichlorophenyl)-1H-pyrazolo[3,4-b]pyrazin-6-yl)-7-(1-methyl-1H-pyrazol-3-yl)-3-azabicyclo[4.1.0]heptan-7-yl)methanamine]
- IC50 [1]: < 0.5 µM
- IC50 [2, 3]: < 1 µM

SMILES: NCC1(c2ccon2)C2CCN(c3cnc4c(-c5cccc(Cl)c5Cl)n[nH]c4n3)CC21 (stereo not drawn) [Example 99, (3-(3-(2,3-dichlorophenyl)-1H-pyrazolo[3,4-b]pyrazin-6-yl)-7-(isoxazol-3-yl)-3-azabicyclo[4.1.0]heptan-7-yl)methanamine]
- IC50 [1]: < 0.5 µM
- IC50 [2, 3]: < 1 µM

SMILES: NCC1C2CCN(c3cnc4c(-c5cccc(Cl)c5Cl)n[nH]c4n3)CC12 (stereo not drawn) [Example 100, (3-(3-(2,3-dichlorophenyl)-1H-pyrazolo[3,4-b]pyrazin-6-yl)-3-azabicyclo[4.1.0]heptan-7-yl)methanamine]
- IC50 [1]: < 0.5 µM
- IC50 [2, 3]: < 1 µM

SMILES: Cc1csc(C2(CN)C3CCN(c4nc5[nH]nc(-c6cccc7ncccc67)c5nc4CO)CC32)n1 (stereo not drawn) [Example 101, (6-(7-(aminomethyl)-7-(4-methylthiazol-2-yl)-3-azabicyclo[4.1.0]heptan-3-yl)-3-(quinolin-5-yl)-1H-pyrazolo[3,4-b]pyrazin-5-yl)methanol]
- IC50 [1]: < 0.5 µM
- IC50 [2, 3]: < 1 µM

SMILES: Cc1csc(C2(CN)C3CCN(c4nc5[nH]nc(-c6cccc(Cl)c6Cl)c5nc4CO)CC32)n1 (stereo not drawn) [Example 102, (6-(7-(aminomethyl)-7-(4-methylthiazol-2-yl)-3-azabicyclo[4.1.0]heptan-3-yl)-3-(2,3-dichlorophenyl)-1H-pyrazolo[3,4-b]pyrazin-5-yl)methanol]
- IC50 [1]: < 0.5 µM
- IC50 [2, 3]: < 1 µM

SMILES: Cc1csc(C2(CN)C3CCN(c4cnc5c(-c6ccc(OS(=O)(=O)F)c7ccccc67)n[nH]c5n4)CC32)n1 (stereo not drawn) [Example 103, 4-(6-(7-(aminomethyl)-7-(4-methylthiazol-2-yl)-3-azabicyclo[4.1.0]heptan-3-yl)-1H-pyrazolo[3,4-b]pyrazin-3-yl)naphthalen-1-yl sulfurofluoridate]
- IC50 [1]: < 0.5 µM
- IC50 ([2]; KYSE-520, 2 h): < 1 µM

SMILES: NC[C@]1(c2ccccc2)[C@@H]2CN(c3cnc(Sc4cccnc4C(F)(F)F)c(N)n3)C[C@@H]21 [Example 104, 6-((1R,5S,6s)-6-(aminomethyl)-6-phenyl-3-azabicyclo[3.1.0]hexan-3-yl)-3-((2-(trifluoromethyl)pyridin-3-yl)thio)pyrazin-2-amine]
- IC50 [1]: < 0.5 µM
- IC50 ([2]; KYSE-520 cells, 2 h at 37° C., phospho-ERK1/2 (Thr202/Tyr204) TR-FRET): > 5 µM

SMILES: NC[C@]1(c2ccccc2F)[C@@H]2CCN(c3cnc4c(-c5ccnc(N)c5Cl)n[nH]c4n3)C[C@@H]21 [Example 105, 4-(6-((1S,6R,7R)-7-(aminomethyl)-7-(2-fluorophenyl)-3-azabicyclo[4.1.0]heptan-3-yl)-1H-pyrazolo[3,4-b]pyrazin-3-yl)-3-chloropyridin-2-amine]
- IC50 [1]: < 0.5 µM
- IC50 [2, 3]: < 1 µM

SMILES: Cc1c(-c2n[nH]c3nc(N4CC[C@@H]5[C@H](C4)[C@@]5(CN)c4c(F)cccc4F)cnc23)ccc2nn(C)cc12 [Example 106, ((1S,6R,7R)-7-(2,6-difluorophenyl)-3-(3-(2,4-dimethyl-2H-indazol-5-yl)-1H-pyrazolo[3,4-b]pyrazin-6-yl)-3-azabicyclo[4.1.0]heptan-7-yl)methanamine]
- IC50 [1]: < 0.5 µM
- IC50 [2, 3]: < 1 µM

SMILES: Cc1cc([C@@]2(CN)[C@@H]3CCN(c4cnc5c(-c6ccc7nc(C)sc7c6Cl)n[nH]c5n4)C[C@@H]32)no1 [Example 107, ((1S,6R,7S)-3-(3-(7-chloro-2-methylbenzo[d]thiazol-6-yl)-1H-pyrazolo[3,4-b]pyrazin-6-yl)-7-(5-methylisoxazol-3-yl)-3-azabicyclo[4.1.0]heptan-7-yl)methanamine]
- IC50 [1]: < 0.5 µM
- IC50 [2, 3]: < 1 µM

SMILES: Cc1cc([C@@]2(CN)[C@@H]3CCN(c4cnc5c(-c6ccc7nn(C)c(C)c7c6Cl)n[nH]c5n4)C[C@@H]32)no1 [Example 108, ((1S,6R,7S)-3-(3-(4-chloro-2,3-dimethyl-2H-indazol-5-yl)-1H-pyrazolo[3,4-b]pyrazin-6-yl)-7-(5-methylisoxazol-3-yl)-3-azabicyclo[4.1.0]heptan-7-yl)methanamine]
- IC50 [1]: < 0.5 µM
- IC50 [2, 3]: < 1 µM

SMILES: COc1c2c(Cl)c(-c3n[nH]c4nc(N5CC[C@@H]6[C@H](C5)[C@@]6(CN)c5cc(C)on5)cnc34)ccc2nn1C [Example 109, ((1S,6R,7S)-3-(3-(4-chloro-3-methoxy-2-methyl-2H-indazol-5-yl)-1H-pyrazolo[3,4-b]pyrazin-6-yl)-7-(5-methylisoxazol-3-yl)-3-azabicyclo[4.1.0]heptan-7-yl)methanamine]
- IC50 [1]: < 0.5 µM
- IC50 [2, 3]: < 1 µM

SMILES: Cc1cc(C2(CN)C3CCN(c4nc5[nH]nc(-c6ccc7nc(C)sc7c6Cl)c5nc4C)CC32)no1 (stereo not drawn) [Example 110, (3-(3-(7-chloro-2-methylbenzo[d]thiazol-6-yl)-5-methyl-1H-pyrazolo[3,4-b]pyrazin-6-yl)-7-(5-methylisoxazol-3-yl)-3-azabicyclo[4.1.0]heptan-7-yl)methanamine]
- IC50 [1]: < 0.5 µM
- IC50 [2, 3]: < 1 µM

SMILES: COc1cnc2ccc(-c3n[nH]c4nc(N5CC[C@@H]6[C@H](C5)[C@@]6(CN)c5cc(C)on5)cnc34)c(Cl)c2n1 [Example 112, ((1S,6R,7S)-3-(3-(5-chloro-3-methoxyquinoxalin-6-yl)-1H-pyrazolo[3,4-b]pyrazin-6-yl)-7-(5-methylisoxazol-3-yl)-3-azabicyclo[4.1.0]heptan-7-yl)methanamine]
- IC50 [1]: < 0.5 µM
- IC50 [2, 3]: < 1 µM

SMILES: Cc1cc([C@@]2(CN)[C@@H]3CCN(c4cnc5c(-c6csc7ncccc67)n[nH]c5n4)C[C@@H]32)no1 [Example 113, ((1S,6R,7S)-7-(5-methylisoxazol-3-yl)-3-(3-(thieno[2,3-b]pyridin-3-yl)-1H-pyrazolo[3,4-b]pyrazin-6-yl)-3-azabicyclo[4.1.0]heptan-7-yl)methanamine]
- IC50 [1]: < 0.5 µM
- IC50 [2, 3]: < 1 µM

SMILES: Cc1cc([C@@]2(CN)[C@@H]3CCN(c4cnc5c(-c6ccnc7c(F)cccc67)n[nH]c5n4)C[C@@H]32)no1 [Example 114, ((1S,6R,7S)-3-(3-(8-fluoroquinolin-4-yl)-1H-pyrazolo[3,4-b]pyrazin-6-yl)-7-(5-methylisoxazol-3-yl)-3-azabicyclo[4.1.0]heptan-7-yl)methanamine]
- IC50 [1]: < 0.5 µM
- IC50 [2, 3]: < 1 µM

SMILES: COc1ccc2ncccc2c1-c1n[nH]c2nc(N3CC[C@@H]4[C@H](C3)[C@@]4(CN)c3cc(C)on3)cnc12 [Example 115, ((1S,6R,7S)-3-(3-(6-methoxyquinolin-5-yl)-1H-pyrazolo[3,4-b]pyrazin-6-yl)-7-(5-methylisoxazol-3-yl)-3-azabicyclo[4.1.0]heptan-7-yl)methanamine]
- IC50 [1]: 0.5 to 3 µM
- IC50 [2, 3]: < 1 µM
